Experiments:
[1] = molecular target: T1, serotonin reuptake (5HT uptake) (Rattus norvegicus, UniProt P31652); assay: Serotonin reuptake inhibition (5HT uptake inhibition) in rat brain synaptosomes; format: biochemical; details: synaptosomes from male rats' brains
T1 construct: These vesicular particles were isolated from the hypothalamus of male rats' brains for 5HT uptake; from tissue; host or cells: rat brain synaptosomes (P2 fraction; cerebral cortex / hypothalamus of male rats)
From the text: a) Tests on Serotonin Reuptake Inhibition
In order to be able to carry out these in vitro studies, synaptosomes from rats' cerebral cortices were freshly isolated. A “P2” fraction prepared according to Gray and Whittaker's instructions (E. G. Gray and V. P. Whittaker (1962) J. Anat. 76, 79-88) was used in each case. These vesicular particles were isolated from the hypothalamus of male rats' brains for 5HT uptake.
A detailed description of the method may be found in the literature (M. Ch. Frink, H.-H. Hennies, W. Englberger, M. Haurand and B. Wilffert (1996) Arzneim.-Forsch./Drug Res. 46 (III), 11, 1029-1036).

[2] = molecular target: T2, noradrenalin reuptake (NA uptake) (Rattus norvegicus, UniProt Q9WTR4); assay: Noradrenalin reuptake inhibition (NA uptake inhibition) in rat brain synaptosomes; format: biochemical; details: synaptosomes from male rats' brains
T2 construct: These vesicular particles were isolated from the hypothalamus of male rats' brains for NA uptake; from tissue; host or cells: rat brain synaptosomes (P2 fraction; cerebral cortex / hypothalamus of male rats)
T2 sequence (Q9WTR4 1-597): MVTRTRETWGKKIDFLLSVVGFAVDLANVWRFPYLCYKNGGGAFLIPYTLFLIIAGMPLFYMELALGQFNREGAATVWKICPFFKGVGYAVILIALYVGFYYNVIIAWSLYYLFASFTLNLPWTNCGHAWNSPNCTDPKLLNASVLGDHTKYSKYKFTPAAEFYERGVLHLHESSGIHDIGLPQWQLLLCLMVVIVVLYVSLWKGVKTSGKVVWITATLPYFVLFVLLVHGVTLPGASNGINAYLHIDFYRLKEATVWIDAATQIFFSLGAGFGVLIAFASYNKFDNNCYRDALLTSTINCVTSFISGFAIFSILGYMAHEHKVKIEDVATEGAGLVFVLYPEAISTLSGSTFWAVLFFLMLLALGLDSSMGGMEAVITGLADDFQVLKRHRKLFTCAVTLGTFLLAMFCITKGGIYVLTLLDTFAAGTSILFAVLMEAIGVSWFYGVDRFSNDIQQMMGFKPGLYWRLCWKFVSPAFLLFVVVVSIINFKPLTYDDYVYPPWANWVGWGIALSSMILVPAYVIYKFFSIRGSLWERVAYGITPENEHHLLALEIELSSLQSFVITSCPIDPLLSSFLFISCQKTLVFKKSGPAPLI
From the text: b) Tests on Noradrenalin Reuptake Inhibition
In order to be able to carry out these in vitro studies, synaptosomes from rats' cerebral cortices were freshly isolated. A “P2” fraction, prepared according to Gray and Whittaker's instructions (E. G. Gray and V. P. Whittaker (1962) J. Anat. 76, 79-88) was used in each case. These vesicular particles were isolated from the hypothalamus of male rats' brains for NA uptake.
A detailed description of the method may be found in the literature (M. Ch. Frink, H.-H. Hennies, W. Englberger, M. Haurand and B. Wilffert (1996) Arzneim.-Frosch./Drug Res. 46 (III), 11, 1029-1036).

[3] = system: binding site 2 of the sodium channel (batrachotoxin (BTX) binding site); assay: Binding test on the sodium channel, binding site 2 (BTX bond), [3H]-batrachotoxinin A20 α-benzoate as ligand; design: species or system rat; details: 10 μM; rat cerebrocortex synaptosomes; ligand 10 nM; 25° C., 120 min

T1 sequence (P31652 whole entry): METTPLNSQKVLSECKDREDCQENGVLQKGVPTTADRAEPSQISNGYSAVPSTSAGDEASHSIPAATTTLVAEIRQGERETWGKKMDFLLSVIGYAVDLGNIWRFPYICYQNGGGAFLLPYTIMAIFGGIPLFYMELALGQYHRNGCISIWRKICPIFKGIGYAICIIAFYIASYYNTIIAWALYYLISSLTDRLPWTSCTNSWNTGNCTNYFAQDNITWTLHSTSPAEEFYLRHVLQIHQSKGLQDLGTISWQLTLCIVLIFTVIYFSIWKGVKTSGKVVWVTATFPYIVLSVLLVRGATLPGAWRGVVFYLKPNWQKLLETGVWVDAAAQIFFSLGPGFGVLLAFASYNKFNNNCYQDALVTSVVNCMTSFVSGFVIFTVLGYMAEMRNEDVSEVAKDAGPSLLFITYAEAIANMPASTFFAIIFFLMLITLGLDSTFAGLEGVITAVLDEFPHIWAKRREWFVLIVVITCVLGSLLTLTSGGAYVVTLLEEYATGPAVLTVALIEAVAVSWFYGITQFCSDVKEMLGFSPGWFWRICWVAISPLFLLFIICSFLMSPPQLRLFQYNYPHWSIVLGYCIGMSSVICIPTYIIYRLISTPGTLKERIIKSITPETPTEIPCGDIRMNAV

Row | Structure (SMILES) | 5HT uptake, % inhibition [10 μM] [1] [%] | NA-uptake, inhibition [10 μM] [2] | inhibition at 10 µM [1] [%] | inhibition at 10 µM [2] [%] | BTX bond, % inhibition [10 μM] [3] [%]
1 | CCn1cc(C2CCN(C(=O)c3ccc(C(F)(F)F)cc3)C2)c2ccccc21 (stereo not shown) [Compound 48, [3-(11-ethyl-1H-indol-3-yl)-pyrrolidin-1-yl]-(4-trifluoromethyl-phenyl)-methanone] | 43 | 40 |  |  | 
2 | O=C(c1ccc(SC(F)(F)F)cc1)N1CCC(c2c[nH]c3ccccc23)C1 (stereo not shown) [Compound 18, [3-(1H-indol-3-yl)-pyrrolidin-1-yl]-(4-trifluoromethylsulphanyl-phenyl)-methanone] |  |  | 49 | 49 | 
3 | O=C(c1ccc([N+](=O)[O-])cc1Cl)N1CCC(c2cn(Cc3cccc(F)c3)c3ccccc23)C1 (stereo not shown) [Compound 20, (2-chloro-4-nitro-phenyl)-{3-[1-(3-fluoro-benzyl)-1H-indol-3-yl]-pyrrolidin-1-yl}-methanone] |  |  | 89 | 43 | 91
4 | O=C(c1ccc([N+](=O)[O-])cc1Cl)N1CCC(c2cn(Cc3ccc(C(F)(F)F)cc3)c3ccccc23)C1 (stereo not shown) [Compound 39] | 43 | 41 |  |  | 90
5 | COc1cccc(Cn2cc(C3CCN(C(=O)Cc4ccc(Cl)cc4)C3)c3ccccc32)c1 (stereo not shown) [Compound 46, 2-(4-chloro-phenyl)-1-{3-[1-(3-methoxy-benzyl)-1H-indol-3-yl]-pyrrolidin-1-yl}-ethanone] |  |  | 46 | 20 | 88
6 | Cn1cc(C2CCN(C(=O)C=Cc3ccccc3)C2)c2ccccc21 (stereo not shown) [Compound 26, 1-[3-(1-methyl-1H-indol-3-yl)-pyrrolidin-1-yl]-3-phenyl-propenone] | 62 | 44 |  |  | 93
7 | Cc1ccc(F)c(C(=O)N2CCC(c3cn(Cc4ccc(C#N)cc4)c4ccccc34)C2)c1Cl (stereo not shown) [Compound 31, 4-{3-[1-(2-chloro-6-fluoro-3-methyl-benzoyl)-pyrrolidin-3-yl]-indol-1-ylmethyl}-benzonitrile] |  |  | 62 | 41 | 92
8 | CCn1cc(C2CCN(C(=O)c3cccnc3)C2)c2ccccc21 (stereo not shown) [Compound 28] | 41 | 52 |  |  | 
9 | C#CCn1cc(C2CCN(C(=O)c3cccnc3SC)C2)c2ccccc21 (stereo not shown) [Compound 44, (2-methylsulphanyl-pyridin-3-yl)-[3-(1-prop-2-inyl-1H-indol-3-yl)-pyrrolidin-1-yl]-methanone] | 60 | 49 |  |  | 
10 | Cn1cc(C2CCN(C(=O)c3ccc(-c4ccccc4)cc3)C2)c2ccccc21 (stereo not shown) [Compound 45, Biphenyl-4-yl-[3-(1-methyl-1H-indol-3-yl)-pyrrolidin-1-yl]-methanone] |  |  | 80 | 43 | 82
11 | COCC(=O)N1CCC(c2cn(Cc3cccc(OC)c3)c3ccccc23)C1 (stereo not shown) [Compound 41, 2-methoxy-1-{3-[1-(3-methoxy-benzyl)-1H-indol-3-yl]-pyrrolidin-1-yl}-ethanone] |  |  | 44 | 43 | 
12 | CCn1cc(C2CCN(CC(=O)Nc3scc(C)c3C#N)C2)c2ccccc21 (stereo not shown) [Compound 52, N-(3-cyano-4-methyl-thiophen-2-yl)-2-[3-(1-ethyl-1H-indol-3-yl)-pyrrolidin-1-yl]-acetamide] |  |  | 79 | 54 | 
13 | CCn1cc(C2CCN(C(=O)c3cc(C(F)(F)F)ccc3Cl)C2)c2ccccc21 (stereo not shown) [Compound 38, (2-chloro-5-trifluoromethyl-phenyl)-[3-(1-ethyl-1H-indol-3-yl)-pyrrolidin-1-yl]-methanone] |  |  |  | 49 | 89
14 | O=[N+]([O-])c1ccc(S(=O)(=O)N2CCC(c3c[nH]c4ccccc34)C2)cc1 (stereo not shown) [Compound 24, 3-[1-(4-nitro-benzenesulphonyl)-pyrrolidin-3-yl]-1H-indole] |  |  | 53 | 59 | 
15 | CCn1cc(C2CCN(C(=O)CCc3ccccc3)C2)c2ccccc21 (stereo not shown) [Compound 35, 1-[3-(1-ethyl-1H-indol-3-yl)-pyrrolidin-1-yl]-3-phenyl-propan-1-one] |  |  | 68 | 48 | 84
16 | CC#CCn1cc(C2CCN(CC(=O)Nc3cc(C)nn3C)C2)c2ccccc21 (stereo not shown) [Compound 49, 2-[3-(1-but-2-ynyl-1H-indol-3-yl)-pyrrolidin-1-yl]-N-(2,5-dimethyl-2H-pyrazol-3-yl)-acetamide] |  |  | 68 | 100 | 
17 | CSc1ncccc1C(=O)N1CCC(c2cn(C)c3ccccc23)C1 (stereo not shown) [Compound 37, [3-(1-methyl-1H-indol-3-yl)-pyrrolidin-1-yl]-(2-methylsulphanyl-pyridin-3-yl)-methanone] |  |  | 64 | 43 | 
18 | Cc1nc(C(F)(F)F)ccc1C(=O)N1CCC(c2cn(Cc3cccc(F)c3)c3ccccc23)C1 (stereo not shown) [Compound 42, {3-[1-(3-fluoro-benzyl)-1H-indol-3-yl]-pyrrolidin-1-yl}-(2-methyl-6-trifluoromethyl-pyridin-3-yl)-methanone] |  |  | 82 | 58 | 96
19 | N#Cc1ccc(Cn2cc(C3CCN(C(=O)c4ccc5nonc5c4)C3)c3ccccc32)cc1 (stereo not shown) [Compound 34, 4-{3-[1-(benzo[1,2,5]oxadiazole-5-carbonyl)-pyrrolidin-3-yl]-indol-1-ylmethyl}-benzonitrile] |  |  | 57 | 49 | 91
20 | Cn1cc(C2CCN(C(=O)c3cccnc3Cl)C2)c2ccccc21 (stereo not shown) [Compound 40, (2-chloro-pyridin-3-yl)-[3-(1-methyl-1H-indol-3-yl)-pyrrolidin-1-yl]-methanone] |  |  | 66 | 43 | 

From US7368470B2, “Substituted 3-pyrrolidine-indole derivatives” (Gruenenthal GmbH, priority 2003, dated 2008)
